Measured values as given in EP4653448A1, “COMPOUND FOR RNA CAPPING AND USE THEREOF” (Guangzhou Henovcom Bioscience Co. Ltd., priority 2023, dated 2024).

What was measured:
[1] = biological target: T7 RNA Polymerase (Escherichia phage T7, UniProt P00573); experiment: Detection of the efficiency of mRNA capping synthesis (in vitro transcription, product yield); format: biochemical; settings: 20 µL mRNA synthesis reaction system, test compound 4 mM, 37°C 2 to 3 h (Table 2)
Protocol: • 1) The plasmids were linearized and the DNA templates were purified. • 2) The mRNA was synthesized by in vitro transcription, using the capping structure prepared in the present disclosure, positive control CleanCap®AG (3'OMe) (Trilink, N-7413), negative control (uncapped mRNA) and blank control (DNase/RNase-Free water), respectively. Reaction system
The reaction was carried out at 37°C for 2 to 3 h. TURBO DNase digestion was carried out for 15 min. The mRNA was precipitated by LiCl for 30 min or more or overnight, and the mRNA precipitate was washed with 75% ethanol, dried briefly to evaporate the ethanol, and the mRNA was redissolved with RNase-Free water.
In the reaction system listed in Table 1, since the solubility of different test compounds varies in different solutions, adjustments can be made as needed. For ease of operation, the commonly used concentrations are 10 mM and 100 mM. […] If the initial concentration of the test compound is 10 mM, the dosage is 8 µL. Regardless of the initial concentration, the dosages of different test compounds were the same, and the final concentrations were also the same.
For example, when testing compounds S17 and S19, their initial concentration was 10 mM, and the addition volume was 8 µL. When testing compounds 5 and 6, their initial concentration was 100 mM, and the addition volume was 0.8 µL.
The assay was performed according to the method described in Example 20.

[2] = system: HEK293T cells; experiment: Expression efficiency of capped luciferase mRNAs in HEK293T cells; format: cell-based; settings: 6 h after transfection of capped luciferase mRNA, 0.5 µg per well; reading of N-7413 = 1 (Table 3)
Protocol: • 1) HNE293T cells were cultured in DMEM medium containing 10% FBS and penicillin/streptomycin at 37°C and 5% CO2. • 2) The cultured HEK293T cells were spread in a 96-well plate with 1.25 × 10^4 cells per well. • 3) After the cells completely adhered to the wall, 0.5 µg of a mixture of mRNA sample and Polyplus jet[…] was added to each well of cells, and cultured at 37°C and 5% CO2 for 6 h. • 4) The growth medium was removed from the cells to be tested and the cells were rinsed with PBS. After centrifugation to remove PBS, 50 µL of 1x lysis buffer was added thereto, and cells and all liquid were transferred to a microcentrifuge tube, and then centrifuged at 12000 x g at 4°C for 2 min. • 5) The supernatant was transferred to a new tube. Fluorescence readings were detected using the ONE-Glo Luciferase Assay System Kit.
All test compounds, N-7413, negative control and blank control were tested under the same conditions, and some experimental results in the test results are shown in Table 3. Table 3. Relative fluorescence readings for capped mRNAs
The assay was performed according to the method described in Example 21. All test compounds, N-7413, negative control and blank control were tested under the same conditions, and some experimental results in the test results are shown in Table 5. Table 5 Relative fluorescence readings for capped mRNAs

[3] = biological target: streptavidin-coated magnetic beads (Streptomyces avidinii, UniProt P22629); experiment: Biotin affinity assay (capture of capped mRNA on streptavidin beads and elution); format: binding; settings: capped mRNA bound to streptavidin beads, eluted at 80°C
streptavidin-coated magnetic beads, sequence (P22629 25-183): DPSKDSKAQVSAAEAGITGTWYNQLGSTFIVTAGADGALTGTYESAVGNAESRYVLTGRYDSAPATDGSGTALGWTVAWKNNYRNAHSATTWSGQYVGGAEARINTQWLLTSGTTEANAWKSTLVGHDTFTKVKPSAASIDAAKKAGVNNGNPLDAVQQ
Protocol: • 1) S1-30nt-mRNA (mRNA capped with compound S1, with a length of 30 nt) was prepared and purified by LiCl; • 2) 500 µL of streptavidin-coated magnetic beads (2 mg) were taken, and the test tube was placed on a magnetic stand to collect the magnetic beads. The supernatant was removed and discarded, and the magnetic beads were washed; • 3) The magnetic beads were resuspended in 600 µL of TES buffer, and 5.5 µg of S1-30nt-mRNA from 1) was added to the magnetic bead resuspension and mixed well; the mixture was incubated at room temperature for one hour on a shaker or vortex mixer; • 4) The sample was placed on the magnetic stand for 5 min, and after the solution became clear, the supernatant was removed; • 5) While keeping the sample on the magnetic stand, the magnetic beads were rinsed three times with TES buffer; • 6) While keeping the sample on the magnetic stand, the magnetic beads were rinsed three times with distilled water; • 7) The deionized water was removed from the beads, and 60 µL of elution buffer heated to 80°C was added and mixed well. The mixture was heated to 80°C for 3 min in a constant-temperature metal bath, then placed on the magnetic stand for 3 min. The supernatant was aspirated as the elution product. • 8) Experimental results

T7 RNA Polymerase, sequence (P00573 whole entry): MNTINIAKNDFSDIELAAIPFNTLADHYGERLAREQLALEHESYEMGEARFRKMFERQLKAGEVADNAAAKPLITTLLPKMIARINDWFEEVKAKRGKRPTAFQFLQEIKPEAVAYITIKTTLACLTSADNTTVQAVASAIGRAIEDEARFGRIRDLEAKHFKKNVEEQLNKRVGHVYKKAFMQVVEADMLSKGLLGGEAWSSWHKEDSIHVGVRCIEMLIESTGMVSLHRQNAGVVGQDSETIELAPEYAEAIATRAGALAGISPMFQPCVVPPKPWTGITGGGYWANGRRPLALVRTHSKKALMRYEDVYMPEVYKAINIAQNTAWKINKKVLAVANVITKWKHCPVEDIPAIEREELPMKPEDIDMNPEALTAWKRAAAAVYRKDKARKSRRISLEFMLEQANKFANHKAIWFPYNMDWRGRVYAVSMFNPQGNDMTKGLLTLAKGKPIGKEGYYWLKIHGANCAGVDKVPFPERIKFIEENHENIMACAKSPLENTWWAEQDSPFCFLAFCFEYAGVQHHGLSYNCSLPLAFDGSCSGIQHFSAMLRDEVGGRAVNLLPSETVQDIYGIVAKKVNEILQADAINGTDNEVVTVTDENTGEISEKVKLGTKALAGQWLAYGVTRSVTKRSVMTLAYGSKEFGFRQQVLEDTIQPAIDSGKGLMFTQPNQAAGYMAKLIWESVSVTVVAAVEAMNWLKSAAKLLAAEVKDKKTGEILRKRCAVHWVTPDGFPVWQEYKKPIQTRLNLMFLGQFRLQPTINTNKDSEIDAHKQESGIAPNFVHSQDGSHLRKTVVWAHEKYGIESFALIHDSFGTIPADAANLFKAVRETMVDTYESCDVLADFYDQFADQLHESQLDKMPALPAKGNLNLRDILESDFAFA

## CO[C@@H]1[C@H](OP(=O)(O)OC[C@H]2O[C@@H](n3cnc4c(=O)[nH]c(N)nc43)[C@H](O)[C@@H]2O)[C@@H](COP(=O)(O)OP(=O)(O)OP(=O)([O-])OC[C@H]2O[C@@H](n3c[n+](C)c4c(=O)[nH]c(N)nc43)[C@H](O)[C@@H]2CNC(=O)CCCCCNC(=O)CCCC[C@@H]2SC[C@@H]3NC(=O)N[C@@H]32)O[C@H]1n1cnc2c(N)ncnc21 [Compound S3]
[1]
  Final product mass: 137 µg
[2]
  Relative fluorescence reading: 2.56
[3]
  recovery rate: above 95%

## CO[C@@H]1[C@H](OP(=O)([O-])OC[C@H]2O[C@@H](n3cnc4c(=O)[nH]c(N)nc43)[C@H](O)[C@@H]2O)[C@@H](COP(=O)(O)OP(=O)(O)OP(=O)(O)OC[C@H]2O[C@@H](n3c[n+](C)c4c(=O)[nH]c(N)nc43)[C@H](O)[C@@H]2CC(=O)NCCNC(=O)CCCC[C@@H]2SC[C@@H]3NC(=O)N[C@@H]32)O[C@H]1n1cnc2c(N)ncnc21 [Compound S170]
[1]
  Final product mass: 96 µg
[2]
  Relative fluorescence reading: 1.47
[3]
  recovery rate: above 95%
